Measured values taken from patent US5877185A, “Synergistic compositions useful as anti-tumor agents” (priority 1995, dated 1999).
pIC50: −log10 of the molar value. Read-outs that look alike come from different tables or passages of the source.

Columns and labels:
AA-2 leukemia cells = test: cytocidal effect in combination with ascorbate; settings: for protection against apoptosis-inducing action: 160 μM ascorbate, 18 hr of drug exposure; for cell number Day 1 / cell number Day 2: alone or with ascorbate 160 μM; for cell number Day 1: 18 hr; for cell number Day 2: 42 hr
Method: Because of the in vitro reactivity of the nitroso group of INOBA with both ascorbate and GSH, the apoptosis-inducing effect of NOBA with the action of the prodrug INO2 BA in the presence of ascorbate, added simultaneously with both drugs was compared.
AA-2 cells were seeded at a density of 0.2×10^6 cells/ml. Drugs and/or sodium ascorbate were added at the time of seeding, and cells were counted by hemacytometer after incubation (37° C., 5% CO^2) for 18 hr (Day 1) and for 42 hr (Day 2). Viability was evaluated by Trypan Blue exclusion.

E ras cells = test: cytostatic and cytocidal activity; type: cell-based, bovine; settings: Bos taurus, average of three trials
Text: pADPRT ligands that oxidize CCHC zinc fingers are not unique inhibitors of pADPRT. […] Hakam et al., FEBS Lett. 193:1-4 (1991). These ligands bind non-covalently to the nicotinamide site and internal DNA-seeking domains of pADPRT. Bauer et al., manuscript in preparation (1994). In contrast, CCHC-oxidizing ligands also bind non-covalently to the nicotinamide site, but initially attack the F1 zinc finger oxidatively. Id. […] Id. […] U.S. Ser. No. 08/076,313 filed Jun. 11, 1993.
Each value is the average of three trials. Each trial deviated from the average by no more than twenty percent. […] Another isomer of the iodo-nitro-benzamide series, 2-iodo-4-nitrobenzamide had no effect at the concentrations given above.

Molt-4 cells = test: time course of cell killing alone and with BSO, Molt-4; type: cell-based; settings: Molt-4, 2-3 day period; 4 μM drug, 1 mM BSO
Method: (§1) Molt 4-cells were seeded at a density of 0.05×10^6 cell/ml in the recommended growth medium in the absence or the presence of drugs as indicated. Cells were incubated at 37° C. in a 5% CO2 atmosphere and proliferation was monitored in 14 hr. by cell counting in a hemacytometer. .smallcircle., untreated control; .circle-solid., treated with 4 μM 4-iodo-3-nitrobenzoic acid; .gradient., treated with 1 mM BSO; .tangle-soliddn., treated with 4 μM-iodo-3-nitrobenzoic acid and 1 mM BSO; .quadrature., treated with 4 μM 4-INO2 BA; .box-solid., treated with 1 mM BSO; .gradient., treated with 4 μM INO2 BA and 1 mM BSO. L-1210 cells were seeded at a density of 0.05×10^6 cells/ml either from untreated stock suspensions or from 24-hr. pretreated (0.2×10^6 cells/ml) suspensions. .smallcircle., untreated control; .circle-solid., treated with […] NOBA; .gradient., treated with 1 mM BSO; .tangle-soliddn., 24-hr pretreatment with 1 mM BSO then treated with 4 μM NOBA.
(§2) A time course of the cell killings by 4-iodo-3-nitrobenzoic acid, INO2 BA and NOBA, each alone and in combination with BSO was obtained. Molt-4 cells were seeded at a density of 0.05×10^6 cells/ml in the recommended growth medium in the absence or presence of drugs as indicated in FIG. 3. Drugs were added to the wells immediately after seeding from 10-40 mM stock solution in DMSO. BSO was added from a 100 mM aqueous stock solution. Cells were incubated at 37° C. in a 5% CO2 atmosphere and proliferation was monitored in 14 hours by cell counting in a hemacytometer.

SIVmac in CEM ×174 cells = test: SIVmac replication in CEM ×174 cells, reverse transcriptase assay; type: cell-based, SIV; settings: for effect on SIVmac replication in pre-infected cells: cells pre-infected one day prior to treatment
Method: CEM ×174 cells (3×10^5 /ml) were infected with 3.75 TCID50 /ml (50% tissue culture infectious dosage per ml of cell suspension) stock solution of SIVmac239 or virus isolates from SIVmac239-infected rhesus macaques on day 0. Uniform infection of cells was ensured by the infection of one cell population only per virus preparation. Three days post-infection, the cells were distributed (500 μl/well) into individual wells of a 24-well plate. Fresh medium containing INO2 BA concentrations ranging from 0 to 300 μM and/or BSO concentrations ranging from 0 to 0.25 mM were added to establish final 1-ml reaction volumes, and the cultures were further incubated for 4 days. The wells were then replenished with fresh CEM ×174 cells (3×10^5 /ml), INO2 BA and/or BSO were re-added at the same concentrations as in the original incubates, and incubation was continued for an additional 3 days. This procedure intends to mimic conditions of in vivo chemotherapy. Cell viability and virus titers in the supernatant were determined on day 10 (3 days after the addition of new cells) by the tetrazolium (MTT) method of Hansen et al., J. Immunol. Methods 119:208-210 (1982) and by the SIV p27 and reverse transcriptase (RT) assays described by Chuang et al., FEBS Lett. 326:140-144 (1993), respectively.
To evaluate the activity of SIV reverse transcriptase, 10 μl of infected cell supernatant was added to a reaction mixture containing 50 mM Tris-HCl (pH 8.0), 5 mM MgCl2, 10 mM dithiothreitol, 20 mM KCl, and 1% Triton X-100 in a total volume of 50 μl. Poly(rA):oligo (dT)12-18 was present at 100 μg/ml and 2.4 μM [^3 H]TTP was used. The reaction mixtures were incubated at 37° C. for 1 hr and the TCA-precipitableradioactivity was filtered onto nitrocellulose filters which were then washed, dried and counted.
The effect of INO2 BA on SIVmac replication in CEM ×174 cells that were pre-infected with virus for one day prior to treatment with INO2 BA are shown in FIG. 6. The cell culture and SIV reverse transcription assay were performed as described in Example XIV.

L-1210 cells = test: time course of cell killing alone and with BSO, L-1210; type: cell-based, murine; settings: L-1210, 2-3 day period; 1 mM BSO
Method: as §1, §2

[1] = reduction by GSH and ascorbate in in vitro chemical tests; type: physicochemical
[2] = tested on: human immunodeficiency virus HIV-1; settings: human lymphocytes; cited from earlier work
[3] = 42 h, read-out: dead cells Day 2

Row | Compound | protection against apoptosis-inducing action (AA-2 leukemia cells) | cytotoxicity at 16 µM (AA-2 leukemia cells; [3]) [%] | cell number Day 1 (AA-2 leukemia cells; INO2 BA 16 μM) [mL⁻¹] | cell number Day 2 (AA-2 leukemia cells; INO2 BA 16 μM) [mL⁻¹] | pIC50 (E ras cells; E ras cells, read-out: Cytostatic Effect I50) | pIC50 (E ras cells; with 0.8 mM BSO, read-out: Cytocidal Effect I50) | effect on cell proliferation (Molt-4 cells) | reverse transcriptase activity (SIVmac in CEM ×174 cells; SIV-infected CEM ×174 cells, FIG. 6) | effect on SIVmac replication in pre-infected cells (SIVmac in CEM ×174 cells) | effect on cell proliferation (L-1210 cells) | cytotoxicity at 32 µM (AA-2 leukemia cells; [3]) [%] | cell number Day 1 (AA-2 leukemia cells; NOBA 32 μM) [mL⁻¹] | cell number Day 2 (AA-2 leukemia cells; NOBA 32 μM) [mL⁻¹] | reduction to the corresponding hydroxyl amines [1] | inhibition of HIV-1 infection [2]
1 | NC(=O)c1ccc(I)c([N+](=O)[O-])c1 [INO2 BA, 4-iodo-3-nitrobenzamide] | did not prevent apoptosis | 40 | 250000 | 450000 | 4.22 | 5.40 | no significant effect | greatly depressed | effective even when incubated with cells that have been infected | no significant effect | – | – | – | – | –
2 | NC(=O)c1cccc(N=O)c1 [NOBA, 3-nitrosobenzamide] | completely protected | – | – | – | – | – | no significant effect | – | requires pre-incubation with cells prior to viral infection | no significant effect | 50 | 290000 | 370000 | rapidly reduced | inhibit infection
